{"source": "patent US10517889B2", "about": "“Modulators of SMAD7 expression” (Ionis Pharmaceuticals, Inc., priority 2017, dated 2019)", "test_system": "human SMAD7 mRNA", "assay": "Antisense inhibition of human SMAD7 mRNA expression in Hep3B cells by 5-10-5 MOE gapmers, single concentration, electroporation, RT-PCR (Example 1, Study 1 and 2)", "format": "cell-based", "procedure,_shortened": "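Hep3B cells (20,000/well) electroporated with 5-10-5 MOE gapmer at 5,000 nM or 15,000 nM for approximately 24 h. SMAD7 mRNA quantified by real-time PCR with primer probe set RTS5062 and normalized to RIBOGREEN total RNA. Values are percent inhibition relative to untreated controls.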", "key": {"[1]": {"settings": "Study 2, electroporation with 15,000 nM antisense oligonucleotide, 5-10-5 MOE gapmers targeting SEQ ID NO: 1 and 2"}, "[2]": {"settings": "electroporation, 5,000 nM, approximately 24 hours, relative to untreated control cells, gapmers targeting SEQ ID NO: 1 and 2"}, "[3]": {"settings": "electroporation, 15,000 nM, approximately 24 hours, relative to untreated control cells, gapmers targeting SEQ ID NO: 1 and 2"}, "[4]": {"settings": "electroporation, 15,000 nM antisense oligonucleotide (Study 2), 5-10-5 MOE gapmers targeting SEQ ID NO: 1 and 2"}}, "note": "Strand notation (5' to 3'): a small letter for the sugar, then the base; units joined by * are phosphorothioate-linked, units joined directly phosphodiester-linked; [ ] holds rarer units or linkages, { } end groups; capitals alone tell only the bases. e = 2'-O-(2-methoxyethyl) (MOE); [5mC] = 5-methylcytosine; d = 2'-deoxy (DNA)", "data": [{"substance": "771710 (antisense eG*eG*eG*e[5mC]*eT*dG*d[5mC]*d[5mC]*d[5mC]*dA*dT*dT*d[5mC]*d[5mC]*dT*eA*eG*e[5mC]*eG*e[5mC]) [compound 771710]", "values": [{"measurement": "% Inhibition", "setting": "[1]", "value": 40, "unit": "%"}]}, {"substance": "771827 (antisense eA*eA*eG*eG*eA*d[5mC]*dA*dT*d[5mC]*dA*d[5mC]*dA*dG*dG*dG*eA*e[5mC]*eT*eG*eG) [compound 771827]", "values": [{"measurement": "% Inhibition", "setting": "[1]", "value": 33, "unit": "%"}, {"measurement": "% inhibition of SMAD7 mRNA expression", "setting": "[2]", "value": 31, "unit": "%"}]}, {"substance": "771925 (antisense eG*eG*e[5mC]*e[5mC]*eT*d[5mC]*dT*d[5mC]*dG*d[5mC]*dT*dG*dA*dT*dA*eG*eT*eT*eA*eA) [compound 771925]", "values": [{"measurement": "% inhibition of SMAD7 mRNA expression", "setting": "[3]", "value": 10, "unit": "%"}]}, {"substance": "771709 (antisense eT*eG*eA*eA*e[5mC]*d[5mC]*d[5mC]*dT*d[5mC]*dA*d[5mC]*dA*dT*d[5mC]*dA*e[5mC]*eA*e[5mC]*eT*e[5mC]) [compound 771709]", "values": [{"measurement": "% inhibition of SMAD7 mRNA expression", "setting": "[3]", "value": 38, "unit": "%"}]}, {"substance": "771660 (antisense eT*eT*e[5mC]*eT*e[5mC]*dT*dT*dG*dT*dT*d[5mC]*dA*dT*dT*dT*eA*eA*eA*e[5mC]*e[5mC]) [compound 771660]", "values": [{"measurement": "% inhibition of SMAD7 mRNA expression", "setting": "[1]", "value": 0, "unit": "%"}]}, {"substance": "771505 (antisense e[5mC]*eT*e[5mC]*eA*eG*d[5mC]*dT*d[5mC]*dA*d[5mC]*dG*d[5mC]*dT*d[5mC]*dT*eG*eT*e[5mC]*e[5mC]*e[5mC]) [compound 771505]", "values": [{"measurement": "% Inhibition of SMAD7 mRNA", "setting": "electroporation with 15,000 nM antisense oligonucleotide (Study 2), 5-10-5 MOE gapmers targeting SEQ ID NO: 1 and 2", "value": 29, "unit": "%"}, {"measurement": "% inhibition of SMAD7 mRNA expression", "setting": "[4]", "value": 0, "unit": "%"}]}, {"substance": "771722 (antisense eA*eG*eA*eG*eG*dG*dA*dG*d[5mC]*dT*d[5mC]*d[5mC]*dA*dG*dG*eA*eA*eT*eT*eT) [compound 771722]", "values": [{"measurement": "% inhibition of SMAD7 mRNA expression", "setting": "[4]", "value": 10, "unit": "%"}]}, {"substance": "771739 (antisense eT*eT*eT*eG*eA*dA*dA*dA*d[5mC]*d[5mC]*d[5mC]*dA*dA*d[5mC]*d[5mC]*e[5mC]*eT*eG*eG*eG) [compound 771739]", "values": [{"measurement": "% Inhibition", "setting": "[1]", "value": 33, "unit": "%"}, {"measurement": "% inhibition of SMAD7 mRNA expression", "setting": "[2]", "value": 22, "unit": "%"}]}, {"substance": "771404 (antisense e[5mC]*eG*eA*eA*e[5mC]*dA*dT*dG*dA*d[5mC]*d[5mC]*dT*d[5mC]*d[5mC]*dG*e[5mC]*eA*e[5mC]*eA*e[5mC]) [compound 771404]", "values": [{"measurement": "% inhibition of SMAD7 mRNA expression", "setting": "[4]", "value": 51, "unit": "%"}]}, {"substance": "771638 (antisense eT*eA*eG*eG*eA*dT*dG*dG*dT*dA*d[5mC]*d[5mC]*dT*dT*dG*eG*eG*eT*eT*eA) [compound 771638]", "values": [{"measurement": "% inhibition of SMAD7 mRNA expression", "setting": "[1]", "value": 41, "unit": "%"}]}, {"substance": "771695 (antisense eT*e[5mC]*eT*e[5mC]*e[5mC]*d[5mC]*dA*dG*dG*dA*dG*dG*dG*dT*dA*eT*eG*e[5mC]*eA*e[5mC]) [compound 771695]", "values": [{"measurement": "% Inhibition", "setting": "[1]", "value": 22, "unit": "%"}]}, {"substance": "771541 (antisense eT*e[5mC]*eT*eT*eT*dT*d[5mC]*dA*dT*dA*dA*dG*d[5mC]*dT*dA*eT*eT*eT*e[5mC]*eT) [compound 771541]", "values": [{"measurement": "% inhibition of SMAD7 mRNA expression", "setting": "[3]", "value": 35, "unit": "%"}]}, {"substance": "771890 (antisense eA*eG*eT*e[5mC]*eT*dG*dA*dA*dG*d[5mC]*d[5mC]*d[5mC]*d[5mC]*d[5mC]*dA*eA*e[5mC]*e[5mC]*eT*eG) [compound 771890]", "values": [{"measurement": "% inhibition of SMAD7 mRNA expression", "setting": "[4]", "value": 14, "unit": "%"}]}, {"substance": "771910 (antisense eA*eG*eG*e[5mC]*eA*d[5mC]*dG*dG*d[5mC]*d[5mC]*dG*d[5mC]*d[5mC]*dT*d[5mC]*e[5mC]*eT*eG*e[5mC]*eA) [compound 771910]", "values": [{"measurement": "% Inhibition", "setting": "[1]", "value": 4, "unit": "%"}]}, {"substance": "771839 (antisense e[5mC]*eA*e[5mC]*eA*eG*d[5mC]*dA*d[5mC]*d[5mC]*dG*dT*dT*dA*d[5mC]*dT*eG*eG*eA*e[5mC]*eA) [compound 771839]", "values": [{"measurement": "% Inhibition", "setting": "[1]", "value": 21, "unit": "%"}]}, {"substance": "771948 (antisense e[5mC]*eA*e[5mC]*e[5mC]*e[5mC]*dA*dG*d[5mC]*dT*d[5mC]*dT*d[5mC]*dA*dA*dA*eT*e[5mC]*eA*eG*eT) [compound 771948]", "values": [{"measurement": "% Inhibition", "setting": "[1]", "value": 0, "unit": "%"}]}, {"substance": "771867 (antisense eA*e[5mC]*eT*eG*eG*dG*d[5mC]*dT*dT*d[5mC]*dA*dG*d[5mC]*dA*dA*eA*eG*eA*eT*eA) [compound 771867]", "values": [{"measurement": "% Inhibition", "setting": "[1]", "value": 19, "unit": "%"}, {"measurement": "% inhibition of SMAD7 mRNA expression", "setting": "[2]", "value": 39, "unit": "%"}]}, {"substance": "771837 (antisense eA*eG*eT*eG*eT*dT*dG*dA*dG*dG*dA*d[5mC]*dT*d[5mC]*d[5mC]*e[5mC]*e[5mC]*eA*eG*e[5mC]) [compound 771837]", "values": [{"measurement": "% inhibition of SMAD7 mRNA expression", "setting": "[3]", "value": 48, "unit": "%"}]}]}
